# How the values were obtained:
# [1] = system: HCT116 cells (K-ras mutated cells); assay: Cell proliferation assay (MTT); format: cell-based, human; set-up: dose or concentration left out as unconfirmed; conditions: same concentrations as fusion proteins (Fig. S4:), 24 h
# Protocol: To assess the anti-proliferative activity of peptides and anti-Ras scFv fusion proteins, HCT116 cells (K-ras mutated cells) were seeded in 96-well plates at a density of 2×10^4 cells/well in 100 µL of DMEM supplemented with 10% FBS and cultured for 24 h at 37°C. […] Cell viability was measured with the 3-(4,5-dimethylthiazol-2-yl)-2,5-diphenyl tetrazolium bromide (MTT) assay using the CellTiter 96® Non-radioactive Cell Proliferation assay kit (Promega, Madison, WI) according to the manufacturer’s instructions. The absorbance of the solution was measured at 570 nm using a Microplate Reader (Bio-Rad). Cell viability was expressed as the percentage of viable cells treated with scFv or peptide-scFv fusion proteins compared to the PBS-treated control (100%). All experiments were done in triplicate.
# Figure 4 Intracellular uptake of peptides and anti-Ras scFv fusion proteins and their anti-proliferative activity. […] (B) Protein uptake was analyzed by Western blotting of fractionated lysates from HCT116 cells treated with PBS, anti-Ras scFv, BR2- or Tat-scFv fusion protein (each, 2 µM) at 37°C for 2 h. […] Cell proliferation was determined using the MTT assay. […]
# HCT116 cells were seeded in 96-well plates at a density of 2×10^4 cells/well in 100 μl of DMEM supplemented with 10% FBS and cultured for 24 h at 37°C. […] The absorbance of the solution was measured at 570 nm using a Microplate Reader (Bio-Rad). […]
# [2] = system: normal cell lines (HaCat, BJ and NIH 3T3); assay: In vitro cytotoxicity assay (LDH leakage), normal cell lines; conditions: 24 h, 37°C
# Protocol: The cytotoxicity of peptides to mammalian cells was investigated by assessing the release of lactate dehydrogenase (LDH) from cancer and normal cells. The amount of LDH released from damaged cells into the supernatant was measured using the Cytotoxicity Detection Kit (Roche Applied Science, Germany) according to the manufacturer’s instructions. In brief, cells were plated onto 96-well microplates (1×10^4 cells per well) in complete DMEM supplemented with 10% FBS and incubated overnight at 37°C to allow for attachment and spreading of cells. After 24 h of incubation, cells were treated with various concentrations of peptides (0–100 µM) and incubated for another 24 h at 37°C. The extracellular medium from each well was transferred to a new microplate and incubated for 10 min with 100 µl/well reaction mixture, followed by a stop solution. Absorbance was measured at 490 nm by using an ELISA plate reader. LDH release from cells lysed with 0.2% Triton X-100 in PBS was defined as 100% leakage and LDH release from untreated cells as 0% leakage.
# (B,C) In vitro cytotoxicity of peptides. (B) Membrane disturbance was measured by lactate dehydrogenase (LDH) leakage from the indicated cell lines 24 h after peptide treatment. LDH leakage from cells seeded in a 96-well plate at 10,000 cells/well was measured after exposure to 1, 2, 5, 10, 20, 50 or 100 µM peptides for 24 h. […]
# [3] = system: normal cells (HaCat, BJ and NIH 3T3); assay: Confocal laser scanning microscopy of FITC-labeled peptide uptake, normal cells; format: cell-based, human, mouse; conditions: FITC-labeled peptide 5 µM, 30 min, 37°C, live unfixed cells
# Protocol: To investigate the cell-penetrating ability and the intracellular distribution of the internalized peptides, live confocal microscopy was performed on three cancer lines (HeLa, HCT116 and B16/F10) and three normal cell lines (HaCat, BJ and NIH 3T3). Briefly, cells (2×10^5) were plated on a glass coverslip placed in a 6-well plate, grown overnight, and then incubated with FITC-labeled peptides (5 µM for each cell line) for 30 min. The cells were then rinsed three times with phosphate buffered saline (PBS, pH 7.4), and mounted on microscope slides with fluorescence mounting solution (Dako Corp, Carpinteria, CA). Colocalization of BR2 with lysosomes was observed by using LysoTracker Red DND-99 (Molecular Probe, Eugene, OR). To avoid the effects of fixation artifacts, involving both methanol and paraformaldehyde, cells were not fixed, [27]. The distribution of FITC-labeled peptides was analyzed using a confocal scanning laser Zeiss LSM 510 microscope (Jena, Germany) equipped with a 40× and 20× objective. Fluorophores were excited with an argon laser (488 nm) for FITC and a HeNe laser (543 nm) for LysoTracker Red.
# (B,C) In vitro cytotoxicity of peptides.
sequence,measurement,setting,value
RAGLQFPVGRLLRRLLR [BR2],anti-proliferative activity of peptide alone,[1],did not show any detectable inhibitions
same,LDH leakage,"[2]; 100 µM peptide, 0.2% Triton X-100 = 100%, n = 3",~17%
same,LDH leakage,[2]; peptide concentrations below 70 µM,not detected
same,cellular uptake (confocal microscopy),[3],very poorly internalized

# From article PMC3679022, “A Cancer Specific Cell-Penetrating Peptide, BR2, for the Efficient Delivery of an scFv into Cancer Cells” (PLoS ONE, 2013)
